# From ChEMBL document CHEMBL5126621, “Modifying a Hydroxyl Patch in Glucagon-like Peptide 1 Produces Biased Agonists with Unique Signaling Profiles” (J Med Chem, 2022)
# Calls of active or inactive are those of the source. The rule behind the calls is not given here. Where a SMILES comes first, the peptide text is derived from it. [ ]: non-standard residue; d: D form. Abu = CC[C@H](N)C(=O)O
# Experiments:
# [1] = Drug uptake in human GLP-1R expressed in CHO cells coexpressing GFP assessed as drug internalization at 100 nM incubated for 30 mins by inverted microscopic analysis; format: ADME, cell-based, Cricetulus griseus; conditions: chinese hamster, 0.5 h, 0.1 µM
# [2] = target: T1, Glucagon-like peptide 1 receptor (Homo sapiens, UniProt P43220); assay: Agonist activity at human GLP-1R expressed in CHO cells coexpressing GFP assessed as receptor internalization at 10 uM by confocal fluorescence microscopy; format: functional, cell-based; conditions: filed as agonist
# [3] = target: T1, Glucagon-like peptide 1 receptor; assay: Agonist activity at human GLP-1R expressed in CHO cells coexpressing GFP assessed as increase in glucagon-like peptide 1-induced receptor internalization at 10 uM by confocal fluorescence microscopy; format: functional, cell-based; conditions: filed as agonist, time 30.0 min
# [4] = target: T1, Glucagon-like peptide 1 receptor
# Description: Agonist activity at human GLP-1R expressed in CHO cells coexpressing beta-arrestin-2 assessed as increase in beta arrestin-2 recruitment incubated for 1 hr by chemiluminescence based pathHunter assay
# [5] = target: T1, Glucagon-like peptide 1 receptor; remark: listed apart in the source
# Description: Agonist activity at human GLP-1R expressed in CHO cells coexpressing beta-arrestin-2 assessed as reduction in cAMP accumulation incubated for 2 hrs under dark condition by LANCE cAMP assay
# [6] = target: T1, Glucagon-like peptide 1 receptor; remark: listed apart in the source
# [7] = target: T1, Glucagon-like peptide 1 receptor; remark: listed apart in the source
# Description: Agonist activity at human GLP-1R expressed in CHO cells coexpressing beta-arrestin-2 assessed as stimulation intracellular calcium mobilization measured after 180 secs by Fluo-3-AM dye based fluorescence assay
# [8] = target: T1, Glucagon-like peptide 1 receptor; remark: listed apart in the source
# Description: Agonist activity at human GLP-1R assessed as increase in ERK1/2 phosphorylation at Thr202/Tyr204 residues incubated for 20 mins by AlphaLISA assay
# Mus musculus [9] = assay: Reduction in blood glucose level in intraperitoneal glucose injected C57BL/6J mouse at 0.1 mg/kg, ip administered as single dose measured 20 to 60 mins by glucose tolerance test; format: functional, organism-based; conditions: time 20-60 min
# [10] = target: T1, Glucagon-like peptide 1 receptor; assay: Binding affinity to human GLP-1R expressed in CHO cells coexpressing beta-arrestin-2 assessed as fold increase in affinity incubated for 1 hr in presence of N-(tert-butyl)-6,7-dichloro-3-(methylsulfonyl)quinoxalin-2-amine by time-resolved fluorescence assay; format: cell-based
# [11] = target: T1, Glucagon-like peptide 1 receptor; assay: Receptor residence time at human GLP-1R expressed in CHO cells coexpressing beta-arrestin-2 assessed as inhibition of glucagon-like peptide 1-induced calcium mobilization by measuring half life at 100 uM preincubated for 30 mins followed by glucagon-like peptide 1 addition measured upto 4 hrs by calcium mobilization assay; format: functional, cell-based; conditions: filed as agonist
# INS1 = assay: Induction of glucose-stimulated insulin secretion in rat INS1 cells measured after 1 to 16 hrs by HTRF assay; format: functional, cell-based; conditions: dose 10-1e+07 pM, time lower 1.0 hrs, time upper […], DDE = dose-dependent effect
# Mus musculus [12] = assay: Reduction in blood glucose level in intraperitoneal glucose injected C57BL/6J mouse by measuring glucose area under curve at 0.1 mg/kg, ip administered as single dose measured in 90 mins by glucose tolerance test; format: functional, organism-based
# Mus musculus [13] = assay: Induction of plasma insulin level in C57BL/6J mouse assessed as increase in insulin level at 0.1 mg/kg, ip administered as single dose measured at 10 mins in presence of glucose; format: functional, organism-based
# T1 sequence (P43220 whole entry): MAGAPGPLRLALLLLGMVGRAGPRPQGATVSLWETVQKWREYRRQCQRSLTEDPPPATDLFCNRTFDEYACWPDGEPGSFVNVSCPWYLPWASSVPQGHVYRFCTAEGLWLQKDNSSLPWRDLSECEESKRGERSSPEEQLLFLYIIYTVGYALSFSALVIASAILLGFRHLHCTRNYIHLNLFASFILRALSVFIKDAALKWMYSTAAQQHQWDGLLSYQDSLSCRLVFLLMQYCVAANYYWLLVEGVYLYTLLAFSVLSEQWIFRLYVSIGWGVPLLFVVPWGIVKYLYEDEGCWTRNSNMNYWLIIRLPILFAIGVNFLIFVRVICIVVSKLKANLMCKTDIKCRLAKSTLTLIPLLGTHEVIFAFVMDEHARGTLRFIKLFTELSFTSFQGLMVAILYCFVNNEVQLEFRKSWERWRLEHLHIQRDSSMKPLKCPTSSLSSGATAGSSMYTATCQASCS
Molecule,Drug uptake [1],Activity [2],Activity [3],EC50 [4] [nM],EC50 [5] [nM],IC50 [6] [nM],EC50 [7] [nM],EC50 [8] [nM],Activity (Mus musculus [9]),fold change (FC) [10],T1/2 [11] [h],Activity (INS1),Activity (Mus musculus [12]),Activity (Mus musculus [13])
CC[C@H](C)[C@H](NC(=O)[C@H](Cc1ccccc1)NC(=O)[C@H](CCC(=O)O)NC(=O)[C@H](CCCCN)NC(=O)[C@H](C)NC(=O)[C@H](C)NC(=O)[C@H](CCC(N)=O)NC(=O)CNC(=O)[C@H](CCC(=O)O)NC(=O)[C@H](CC(C)C)NC(=O)[C@H](Cc1ccc(O)cc1)NC(=O)[C@H](CO)NC(=O)[C@H](CO)NC(=O)[C@@H](NC(=O)[C@H](CC(=O)O)NC(=O)[C@H](CO)NC(=O)[C@@H](NC(=O)[C@H](Cc1ccccc1)NC(=O)[C@@H](NC(=O)CNC(=O)[C@H](CCC(=O)O)NC(=O)[C@H](C)NC(=O)[C@@H](N)Cc1c[nH]cn1)[C@@H](C)O)[C@@H](C)O)C(C)C)C(=O)N[C@@H](C)C(=O)N[C@@H](Cc1c[nH]c2ccccc12)C(=O)N[C@@H](CC(C)C)C(=O)N[C@H](C(=O)N[C@@H](CCCCN)C(=O)NCC(=O)N[C@@H](CCCNC(=N)N)C(N)=O)C(C)C,Active,,,,,,,,,,,,,
CC(C)(C)Nc1nc2cc(Cl)c(Cl)cc2nc1S(C)(=O)=O,,Active,Active,,,,,,,,,,,
CC[S+]([O-])c1nc(-c2cccc(OCc3ccccc3)c2)cc(C(F)(F)F)n1 (stereo unspecified),,Active,Active,,,,,,,,,,,
CC[C@H](NC(=O)[C@H](CC)NC(=O)[C@@H](NC(=O)[C@H](CC(=O)O)NC(=O)[C@H](CC)NC(=O)[C@@H](NC(=O)[C@H](Cc1ccccc1)NC(=O)[C@@H](NC(=O)CNC(=O)[C@H](CCC(=O)O)NC(=O)[C@H](C)NC(=O)[C@@H](N)Cc1c[nH]cn1)C(C)C)[C@@H](C)O)C(C)C)C(=O)N[C@@H](Cc1ccc(O)cc1)C(=O)N[C@@H](CC(C)C)C(=O)N[C@@H](CCC(=O)O)C(=O)NCC(=O)N[C@@H](CCC(N)=O)C(=O)N[C@@H](C)C(=O)N[C@@H](C)C(=O)N[C@@H](CCCCN)C(=O)N[C@@H](CCC(=O)O)C(=O)N[C@@H](Cc1ccccc1)C(=O)N[C@H](C(=O)N[C@@H](C)C(=O)N[C@@H](Cc1c[nH]c2ccccc12)C(=O)N[C@@H](CC(C)C)C(=O)N[C@H](C(=O)N[C@@H](CCCCN)C(=O)NCC(=O)N[C@@H](CCCNC(=N)N)C(N)=O)C(C)C)[C@@H](C)CC (H-HAEGVFT[Abu]DV[Abu][Abu]YLEGQAAKEFIAWLVKGR-NH2),,,,> 10000,5.01,398,> 100000,> 10000,,,,,,
H-HAEGAFTADVAAYLEGQAAKEFIAWLVKGR-NH2,Active,,,> 10000,0.0398,251,> 100000,> 100000,Active,10,4,Dde,Active,Active
H-HAEGTFTADVAAYLEGQAAKEFIAWLVKGR-NH2,Active,,,158,0.00501,251,794,> 10000,Active,,,,Active,Active
